From patent US20170190671A1, “BIS(ARYL)CATECHOL DERIVATIVES AS HERBICIDES” (E I DU PONT DE NEMOURS AND COMPANY, priority 2014, published 2017)

Columns and labels:
Type in all cases: in vivo
Conditions in all cases: scale 0 to 100
[1] = test system: spring barley (Hordeum vulgare); test: Test D preemergence
Excerpt: (§1) Seeds of plant species selected from bluegrass (annual bluegrass, Poa annua), blackgrass (Alopecurus myosuroides), canarygrass (Phalaris minor), chickweed (common chickweed, Stellaria media), cutleaf geranium (Geranium dissectum), galium (catchweed bedstraw, Galium aparine), downy bromegrass (Bromus tectorum), field poppy (Papaver rhoeas), field violet (Viola arvensis), green foxtail (Setaria viridis), deadnettle (henbit deadnettle, Lamium amplexicaule), Italian ryegrass (Lolium multiflorum), kochia (Kochia scoparia), lambsquarters (Chenopodium album), oilseed rape (Brassica napus), pigweed (Amaranthus retroflexus), chamomile (scentless chamomile, Matricaria inodora), Russian thistle (Salsola kali), speedwell (bird's-eye speedwell, Veronica persica), spring barley (Hordeum vulgare), spring wheat (Triticum aestivum), wild buckwheat (Polygonum convolvulus), wild mustard (Sinapis arvensis), wild oat (Avenafatua), wild radish (Raphanus raphanistrum), windgrass (Apera spica-venti), winter barley (Hordeum vulgare), and winter wheat (Triticum aestivum) were planted into a silt loam soil and treated preemergence with test chemicals formulated in a non-phytotoxic solvent mixture which included a surfactant.
(§2) At the same time, these species were planted in pots containing Redi-Earth® planting medium (Scotts Company, 14111 Scottslawn Road, Marysville, Ohio 43041) comprising spaghnum peat moss, vermiculite, wetting agent and starter nutrients and treated with postemergence applications of the test chemicals formulated in the same manner. Plants ranged in height from 2 to 18 cm (1- to 4-leaf stage). Treated plants and controls were maintained in a controlled growth environment for 14 to 21 days after which time all species were compared to controls and visually evaluated. Plant response ratings, summarized in Table D, are based on a scale of 0 to 100 where 0 is no effect and 100 is complete control. A dash (-) response means no test result.

[2] = test system: chickweed (common chickweed, Stellaria media); test: Test D preemergence
Excerpt: as §1, §2

[3] = test system: canarygrass (Phalaris minor); test: Test D preemergence
Excerpt: as §1, §2

[4] = test system: bluegrass (annual bluegrass, Poa annua); test: Test D preemergence
Excerpt: as §1, §2

[5] = test system: field poppy (Papaver rhoeas); test: Test D preemergence
Excerpt: as §1, §2

[6] = test system: blackgrass (Alopecurus myosuroides); test: Test D preemergence
Excerpt: as §1, §2

[7] = test system: pigweed (Amaranthus retroflexus); test: Test D preemergence
Excerpt: as §1, §2

kochia (Kochia scoparia) = test: Test D preemergence
Excerpt: as §1, §2

[8] = test system: windgrass (Apera spica-venti); test: Test D preemergence
Excerpt: as §1, §2

[9] = test system: galium (catchweed bedstraw, Galium aparine); test: Test D preemergence
Excerpt: as §1, §2

[10] = test system: Italian ryegrass (Lolium multiflorum); test: Test D preemergence
Excerpt: as §1, §2

[11] = test system: downy bromegrass (Bromus tectorum); test: Test D preemergence
Excerpt: as §1, §2

[12] = test system: deadnettle (henbit deadnettle, Lamium amplexicaule); test: Test D preemergence
Excerpt: as §1, §2

[13] = test system: wild mustard (Sinapis arvensis); test: Test D preemergence
Excerpt: as §1, §2

[14] = test system: wild buckwheat (Polygonum convolvulus); test: Test D preemergence
Excerpt: as §1, §2

[15] = test system: spring wheat (Triticum aestivum); test: Test D preemergence
Excerpt: as §1, §2

[16] = test system: speedwell (bird's-eye speedwell, Veronica persica); test: Test D preemergence
Excerpt: as §1, §2

[17] = test system: oilseed rape (Brassica napus); test: Test D preemergence
Excerpt: as §1, §2

[18] = test system: winter barley (Hordeum vulgare); test: Test D preemergence
Excerpt: as §1, §2

[19] = test system: canarygrass (Phalaris minor); test: Test D postemergence
Method in brief: (§3)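 Seeds were sown in silt loam for preemergence treatment, or in peat/vermiculite medium for postemergence sprays at 2–18 cm (1- to 4-leaf stage). Test chemicals were in a non-phytotoxic solvent with surfactant. After 14–21 days in a controlled environment, plants were visually rated against controls on a 0–100 scale (0 no effect, 100 complete control).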

[20] = test system: deadnettle (henbit deadnettle, Lamium amplexicaule); test: Test D postemergence
Method in brief: as §3

N#Cc1cccc(Oc2ncc(Cl)cn2)c1Oc1ncc(Cl)cn1 [Compound 3, 2,3-bis[(5-chloro-2-pyrimidinyl)oxy]benzonitrile]
Plant response rating, Barley, Spring ([1]; 16 g ai/ha): 0 | Plant response rating, Barley, Spring ([1]; 31 g ai/ha): 0 | Plant response rating, Barley, Spring ([1]; 62 g ai/ha): 0 | Plant response rating, Barley, Spring ([1]; 125 g ai/ha): 40 | Plant response rating, Chickweed ([2]; 16 g ai/ha): 100 | Plant response rating, Chickweed ([2]; 31 g ai/ha): 100 | Plant response rating, Chickweed ([2]; 62 g ai/ha): 100 | Plant response rating, Chickweed ([2]; 125 g ai/ha): 100 | Plant response rating, Canarygrass ([3]; 16 g ai/ha): 0 | Plant response rating, Canarygrass ([3]; 31 g ai/ha): 5 | Plant response rating, Canarygrass ([3]; 62 g ai/ha): 20 | Plant response rating, Canarygrass ([3]; 125 g ai/ha): 80 | Plant response rating, Bluegrass ([4]; 16 g ai/ha): 0 | Plant response rating, Bluegrass ([4]; 31 g ai/ha): 0 | Plant response rating, Bluegrass ([4]; 62 g ai/ha): 25 | Plant response rating, Bluegrass ([4]; 125 g ai/ha): 85 | Plant response rating, Field Poppy ([5]; 16 g ai/ha): 90 | Plant response rating, Field Poppy ([5]; 31 g ai/ha): 100 | Plant response rating, Field Poppy ([5]; 62 g ai/ha): 100 | Plant response rating, Field Poppy ([5]; 125 g ai/ha): 100 | Plant response rating, Blackgrass ([6]; 16 g ai/ha): 0 | Plant response rating, Blackgrass ([6]; 31 g ai/ha): 10 | Plant response rating, Blackgrass ([6]; 62 g ai/ha): 35 | Plant response rating, Blackgrass ([6]; 125 g ai/ha): 70 | Plant response rating, Pigweed ([7]; 16 g ai/ha): 100 | Plant response rating, Pigweed ([7]; 31 g ai/ha): 100 | Plant response rating, Pigweed ([7]; 62 g ai/ha): 100 | Plant response rating, Pigweed ([7]; 125 g ai/ha): 100 | Plant response rating, Kochia (kochia (Kochia scoparia); 16 g ai/ha): 100 | Plant response rating, Kochia (kochia (Kochia scoparia); 31 g ai/ha): 100 | Plant response rating, Kochia (kochia (Kochia scoparia); 62 g ai/ha): 100 | Plant response rating, Kochia (kochia (Kochia scoparia); 125 g ai/ha): 100 | Plant response rating, Windgrass ([8]; 16 g ai/ha): 10 | Plant response rating, Windgrass ([8]; 31 g ai/ha): 15 | Plant response rating, Windgrass ([8]; 62 g ai/ha): 50 | Plant response rating, Windgrass ([8]; 125 g ai/ha): 80 | Plant response rating, Galium ([9]; 16 g ai/ha): 20 | Plant response rating, Galium ([9]; 31 g ai/ha): 100 | Plant response rating, Galium ([9]; 62 g ai/ha): 100 | Plant response rating, Galium ([9]; 125 g ai/ha): 100 | Plant response rating, Ryegrass, Italian ([10]; 16 g ai/ha): 0 | Plant response rating, Ryegrass, Italian ([10]; 31 g ai/ha): 0 | Plant response rating, Ryegrass, Italian ([10]; 62 g ai/ha): 50 | Plant response rating, Ryegrass, Italian ([10]; 125 g ai/ha): 40 | Plant response rating, Bromegrass, Downy ([11]; 16 g ai/ha): 0 | Plant response rating, Bromegrass, Downy ([11]; 31 g ai/ha): 0 | Plant response rating, Bromegrass, Downy ([11]; 62 g ai/ha): 5 | Plant response rating, Bromegrass, Downy ([11]; 125 g ai/ha): 15 | Plant response rating, Deadnettle ([12]; 16 g ai/ha): 70 | Plant response rating, Deadnettle ([12]; 31 g ai/ha): 95 | Plant response rating, Deadnettle ([12]; 62 g ai/ha): 100 | Plant response rating, Deadnettle ([12]; 125 g ai/ha): 100 | Plant response rating, Mustard, Wild ([13]; 16 g ai/ha): 15 | Plant response rating, Mustard, Wild ([13]; 31 g ai/ha): 60 | Plant response rating, Mustard, Wild ([13]; 62 g ai/ha): 95 | Plant response rating, Mustard, Wild ([13]; 125 g ai/ha): 100 | Plant response rating, Buckwheat, Wild ([14]; 16 g ai/ha): 0 | Plant response rating, Buckwheat, Wild ([14]; 31 g ai/ha): 30 | Plant response rating, Buckwheat, Wild ([14]; 62 g ai/ha): 75 | Plant response rating, Buckwheat, Wild ([14]; 125 g ai/ha): 100 | Plant response rating, Wheat, Spring ([15]; 16 g ai/ha): 0 | Plant response rating, Wheat, Spring ([15]; 31 g ai/ha): 0 | Plant response rating, Wheat, Spring ([15]; 62 g ai/ha): 10 | Plant response rating, Wheat, Spring ([15]; 125 g ai/ha): 20 | Plant response rating, Speedwell ([16]; 16 g ai/ha): 70 | Plant response rating, Speedwell ([16]; 31 g ai/ha): 100 | Plant response rating, Speedwell ([16]; 62 g ai/ha): 100 | Plant response rating, Speedwell ([16]; 125 g ai/ha): 100 | Plant response rating, Oilseed Rape ([17]; 16 g ai/ha): 10 | Plant response rating, Oilseed Rape ([17]; 31 g ai/ha): 25 | Plant response rating, Oilseed Rape ([17]; 62 g ai/ha): 35 | Plant response rating, Oilseed Rape ([17]; 125 g ai/ha): 100 | Plant response rating, Barley, Winter ([18]; 16 g ai/ha): 0 | Plant response rating, Barley, Winter ([18]; 31 g ai/ha): 0 | Plant response rating, Barley, Winter ([18]; 62 g ai/ha): 20 | Plant response rating, Barley, Winter ([18]; 125 g ai/ha): 70 | Plant response rating, Canarygrass ([19]; 16 g ai/ha): 5 | Plant response rating, Canarygrass ([19]; 31 g ai/ha): 10 | Plant response rating, Canarygrass ([19]; 62 g ai/ha): 15 | Plant response rating, Canarygrass ([19]; 125 g ai/ha): 20 | Plant response rating, Deadnettle ([20]; 16 g ai/ha): 60 | Plant response rating, Deadnettle ([20]; 31 g ai/ha): 70 | Plant response rating, Deadnettle ([20]; 62 g ai/ha): 70 | Plant response rating, Deadnettle ([20]; 125 g ai/ha): 80
